Reference: US7226923B2, “Phthalazinone derivatives” (Hoffman-La Roche Inc., priority 2004, dated 2007)
pIC50: −log10 of the molar value.

Experiments:
[1] = molecular target: T1, Aurora A (Homo sapiens, UniProt O14965); experiment: IC50 determination for inhibitors of Aurora A (96 MTP-ELISA); assay type: biochemical; settings: His4-tagged full-length Aurora A 250 ng/ml, PKB-GSK2 200 nM, ATP 4 μM, 90 min at room temperature, read-out: IC50 Aurora A kinase inhibition
T1 construct: C-terminally Histidine4 (His4)-tagged Aurora A full-length protein
T1 sequence (O14965 1-403): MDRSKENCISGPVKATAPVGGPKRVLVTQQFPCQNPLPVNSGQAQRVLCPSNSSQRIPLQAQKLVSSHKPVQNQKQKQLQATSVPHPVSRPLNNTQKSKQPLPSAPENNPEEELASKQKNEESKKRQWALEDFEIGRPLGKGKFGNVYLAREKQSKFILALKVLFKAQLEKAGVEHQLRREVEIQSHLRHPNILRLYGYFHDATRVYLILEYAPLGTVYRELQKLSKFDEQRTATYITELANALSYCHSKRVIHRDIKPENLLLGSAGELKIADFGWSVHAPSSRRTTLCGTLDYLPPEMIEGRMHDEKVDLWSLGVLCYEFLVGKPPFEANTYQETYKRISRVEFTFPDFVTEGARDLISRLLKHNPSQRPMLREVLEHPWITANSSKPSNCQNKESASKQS

[2] = system: HCT 116 cells; experiment: CellTiter-Glo assay in HCT 116 cells; assay type: cell-based, human; settings: Homo sapiens, HCT-116, 120 h, 5 days incubation, 30 μM to 0.0015 μM
In short: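 Cells seeded at 1000/well in RPMI 1640 with 5% FCS, grown 24 h at 37 °C, then treated with 10 concentrations from 30 μM to 0.0015 μM (1:3 dilutions). After 5 days viability was read as ATP-based luminescence (CellTiter-Glo) following 30 min room-temperature equilibration and lysis.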

Row | Structure (SMILES) | pIC50 [1] | pIC50 [2]
1 | Cc1cc(Nc2nn(C(C)C)c(=O)c3cc(C(N)=O)ccc23)n[nH]1 [Example N-1, 3-Isopropyl-1-(5-methyl-1H-pyrazol-3-ylamino)-4-oxo-3,4-dihydro-phthalazine-6-carboxylic acid amide] | 7.00 to 9.00 | 5.00 to 7.00
2 | Cc1cc(Nc2nn(-c3ccc(C(C)C)cc3)c(=O)c3ccccc23)[nH]n1 [Example P-1, 2-(4-Isopropyl-phenyl)-4-(5-methyl-2H-pyrazol-3-ylamino)-2H-phthalazin-1-one] | 7.00 to 9.00 | 5.00 to 7.00
3 | Cc1cc(Nc2nn(-c3ccccc3Cl)c(=O)c3ccccc23)n[nH]1 [Example R-4, 2-(2-Chloro-phenyl)-4-(5-methyl-1H-pyrazol-3-ylamino)-2H-phthalazin-1-one] | 7.00 to 9.00 | 5.00 to 7.00
4 | Cc1cc(Nc2nn(C(C)C)c(=O)c3cc(N(C)C(=O)OC(C)(C)C)ccc23)[nH]n1 [Example I-14, [3-Isopropyl-1-(5-methyl-2H-pyrazol-3-ylamino)-4-oxo-3,4-dihydro-phthalazin-6-yl]-methyl-carbamic acid tert-butyl ester] | 7.00 to 9.00 | 5.00 to 7.00
5 | Cc1cc(Nc2nn(Cc3ccccc3)c(=O)c3cc(N4CCOCC4)ccc23)n[nH]1 [Example F-4, 2-Benzyl-4-(5-methyl-1H-pyrazol-3-ylamino)-7-morpholino-2H-phthalazin-1-one] | 7.00 to 9.00 | 5.00 to 7.00
6 | Cc1cc(Nc2nn(CC(=O)c3ccccc3)c(=O)c3ccccc23)n[nH]1 [Example E-9, 4-(5-Methyl-1H-pyrazol-3-ylamino)-2-(2-oxo-2-phenyl-ethyl)-2H-phthalazin-1-one] | 7.00 to 9.00 | 5.00 to 7.00
7 | Cc1cc(Nc2nn(C(C)C)c(=O)c3cc(CN4CCOCC4)ccc23)n[nH]1 [Example L-2, 2-Isopropyl-4-(5-methyl-1H-pyrazol-3-ylamino)-7-morpholin-4-ylmethyl-2H-phthalazin-1-one] | 7.00 to 9.00 | 5.00 to 7.00
8 | Cc1cccc(-n2nc(Nc3cc(C)[nH]n3)c3ccccc3c2=O)c1 [Example B-2, 4-(5-Methyl-1H-pyrazol-3-ylamino)-2-m-tolyl-2H-phthalazin-1-one] | 7.00 to 9.00 | 6.11
9 | CC(=O)Nc1ccc(Cn2nc(Nc3cc(C)[nH]n3)c3ccccc3c2=O)cc1 [Example D-1, N-{4-[4-(5-Methyl-1H-pyrazol-3-ylamino)-1-oxo-1H-phthalazin-2-ylmethyl]-phenyl}-acetamide] | 7.00 to 9.00 | 5.38
10 | Cc1cc(Nc2nn(C(C)C)c(=O)c3cc(N(C)Cc4cccnc4)ccc23)n[nH]1 [Example I-3, 2-Isopropyl-4-(5-methyl-1H-pyrazol-3-ylamino)-7-(methyl-pyridin-3-ylmethyl-amino)-2H-phthalazin-1-one] | 7.00 to 9.00 | 5.00 to 7.00
11 | CC(=O)N1CCN(C(=O)c2ccc3c(Nc4cc(C)[nH]n4)nn(C(C)C)c(=O)c3c2)CC1 [Example M-7, 7-(4-Acetyl-piperazine-1-carbonyl)-2-isopropyl-4-(5-methyl-1H-pyrazol-3-ylamino)-2H-phthalazin-1-one] | 7.00 to 9.00 | 4.00 to 5.00
12 | Cc1cc(Nc2nn(-c3cccc(C(F)(F)F)c3)c(=O)c3ccccc23)n[nH]1 [Example R-1, 4-(5-Methyl-1H-pyrazol-3-ylamino)-2-(3-trifluoromethyl-phenyl)-2H-phthalazin-1-one] | 7.00 to 9.00 | 5.00 to 7.00
13 | Cc1cc(Nc2nn(Cc3ccc([N+](=O)[O-])cc3)c(=O)c3ccccc23)n[nH]1 [Example B-3, 4-(5-Methyl-1H-pyrazol-3-ylamino)-2-(4-nitro-benzyl)-2H-phthalazin-1-one] | 6.00 to 7.00 | 5.00 to 7.00

Now from value to molecule:

Row | pIC50 [1] | pIC50 [2] | Structure (SMILES)
14 | 7.00 to 9.00 | 5.00 to 7.00 | Cc1cc(Nc2nn(-c3ccc(C(C)(C)C)cc3)c(=O)c3cc(NC=O)ccc23)[nH]n1 [Example ZB-1, N-[3-(4-tert-Butyl-phenyl)-1-(5-methyl-2H-pyrazol-3-ylamino)-4-oxo-3,4-dihydro-phthalazin-6-yl]-formamide]
15 | 7.00 to 9.00 | 5.00 to 7.00 | CSc1ccc2c(Nc3cc(C)[nH]n3)nn(C(C)C)c(=O)c2c1 [Example H-1, 2-Isopropyl-4-(5-methyl-1H-pyrazol-3-ylamino)-7-methylsulfanyl-2H-phthalazin-1-one]
16 | 7.00 to 9.00 | 5.00 to 7.00 | Cc1cc(Nc2nn(C(C)C)c(=O)c3cc(C(=O)N4CCOCC4)ccc23)n[nH]1 [Example M-2, 2-Isopropyl-4-(5-methyl-1H-pyrazol-3-ylamino)-7-(morpholine-4-carbonyl)-2H-phthalazin-1-one]
17 | 7.00 to 9.00 | 5.00 to 7.00 | Cc1cc(Nc2nn(C(C)C)c(=O)c3cc(OC(F)F)ccc23)n[nH]1 [Example G-7, 7-Difluoromethoxy-2-isopropyl-4-(5-methyl-1H-pyrazol-3-ylamino)-2H-phthalazin-1-one]
18 | 8.15 | 5.00 to 7.00 | Cc1cc(Nc2nn(C(C)C)c(=O)c3cc(OCCN4CCOCC4)ccc23)n[nH]1 [Example G-5, 2-Isopropyl-4-(5-methyl-1H-pyrazol-3-ylamino)-7-(2-morpholin-4-yl-ethoxy)-2H-phthalazin-1-one]
